SMILES strings stand for the structures. Some results are limits rather than exact numbers.

Common to all, as to type: cell-based
Series [1] is described as follows: Cellular toxicity assay in Vero cells. The following applies: African green monkey, read-out: Cytotoxicity. Here is the method: (§1) The toxicity of the compounds was assessed in Vero, human PBM, CEM (human lymphoblastoid), MT-2, and HepG2 cells, as described previously (see Schinazi R. F., Sommadossi J.-P., Saalmann V., Cannon D. L., Xie M.-Y., Hart G. C., Smith G. A. & Hahn E. F. Antimicrob. Agents Chemother. 1990, 34, 1061-67). Cycloheximide was included as positive cytotoxic control, and untreated cells exposed to solvent were included as negative controls. The cytotoxicity IC50 was obtained from the concentration-response curve using the median effective method described previously (see Chou T.-C. & Talalay P. Adv. Enzyme Regul. 1984, 22, 27-55; Belen'kii M. S. & Schinazi R. F. Antiviral Res. 1994, 25, 1-11).

Series [2] can be described thus: Cellular toxicity assay in CEM cells. The following applies: human, CEM lymphoblastoid cells, read-out: Cytotoxicity. The procedure:
as §1

Series [3] can be described thus: Cellular toxicity assay in HepG2 cells. The following applies: human, read-out: Cytotoxicity. Here is the method:
as §1

The test system of another series is wild type HBV. Put plainly: Anti-HBV assay in AD-38 cell line. The following applies: Hepatitis B virus, AD-38 cells, HBV in culture supernatant; for EC50: read-out: Anti-HBV activity EC50; for EC90: read-out: Anti-HBV activity EC90. Here is the method: The anti-HBV activity of the compounds was determined by treating the AD-38 cell line carrying wild type HBV under the control of tetracycline (see Ladner S. K., Otto M. J., Barker C. S., Zaifert K., Wang G. H., Guo J. T., Seeger C. & King R. W. Antimicrob. Agents Chemother. 1997, 41, 1715-20). Removal of tetracycline from the medium [Tet (−)] results in the production of HBV. The levels of HBV in the culture supernatant fluids from cells treated with the compounds were compared with that of the untreated controls. Control cultures with tetracycline [Tet (+)] were also maintained to determine the basal levels of HBV expression. 3TC was included as positive control.
The median effective concentrations (EC50) ranges of several of the compounds described herein against HBV are shown in Table 3: […]

Series [4] can be described thus: Cellular toxicity assay in human PBM cells. The following applies: human, human PBM cells, read-out: Cytotoxicity. Here is the method:
as §1

Turning to `Cn1cc(C(=O)C(=O)NCC#N)cc1C(=O)Nc1ccc(F)c(F)c1` [Compound 30, 4-(2-((cyanomethyl)amino)-2-oxoacetyl)-N-(3,4-difluorophenyl)-1-methyl-1H-pyrrole-2-carboxamide], the CC50 in series [1] was 91.4 µM; in series [2], over 100 µM; in series [3], over 100 µM. In addition, the EC50 in the series with wild type HBV lay within 1 to 9 µM. Also, the EC90 in the series on wild type HBV fell in the range of 1 to 9 µM.
On to `C#CCNC(=O)C(=O)c1c(C)c(C(=O)Nc2ccc(F)c(C)c2)n(C)c1C` [Compound 64, N-(4-fluoro-3-methylphenyl)-1,3,5-trimethyl-4-(2-oxo-2-(prop-2-yn-1-ylamino)acetyl)-1H-pyrrole-2-carboxamide], for which the CC50 in series [1] was 96 µM; in series [2], 18 µM; in series [3], over 100 µM; in series [4], over 100 µM. Also, the concentration giving a half-maximal response (EC50) in the series on wild type HBV fell in the range of 0.0001 to 0.0009 µM. Also, in the series with wild type HBV, the EC90 lay within 0.001 to 0.009 µM.
Take `Cc1c(C(=O)C(=O)Nc2ccccn2)c(C)n(C)c1C(=O)Nc1ccccc1` [Compound 52, 1,3,5-trimethyl-4-(2-oxo-2-(pyridin-2-ylamino)acetyl)-N-phenyl-1H-pyrrole-2-carboxamide]: the CC50 is over 100 µM in series [1], 50 µM in series [2], over 100 µM in series [3] and over 100 µM in series [4]. Moreover, in the series with wild type HBV, the EC50 lay within 0.01 to 0.09 µM. For the same compound, the EC90 in the series with wild type HBV lay within 0.1 to 0.9 µM.
Turning to `Cc1c(C(=O)C(=O)NCc2ccccn2)c(C)n(C)c1C(=O)Nc1ccc(F)c(F)c1` [Compound 47, N-(3,4-difluorophenyl)-1,3,5-trimethyl-4-(2-oxo-2-((pyridin-2-ylmethyl)amino)acetyl)-1H-pyrrole-2-carboxamide], the CC50 is 51 µM in series [1], 47 µM in series [2], 35 µM in series [3] and over 100 µM in series [4]. Also, the EC50 in the series on wild type HBV was 0.01 to 0.09 µM. In the series on wild type HBV, the EC90 is 0.1 to 0.9 µM.
With `Cc1c(C(=O)C(=O)Nc2ccccc2)c(C)n(C)c1C(=O)Nc1ccc(F)c(F)c1` [Compound 69, N-(3,4-difluorophenyl)-1,3,5-trimethyl-4-(2-oxo-2-(phenylamino)acetyl)-1H-pyrrole-2-carboxamide], the CC50 in series [1] is 48 µM; in series [2] it was over 100 µM; in series [3] it was 59 µM; in series [4], over 100 µM. In addition, in the series on wild type HBV, the half-maximal effective concentration (EC50) lay in the range of 0.001 to 0.009 µM. Further, the EC90 in the series on wild type HBV was 0.01 to 0.09 µM.
For the compound `Cc1c(C(=O)C(=O)Nc2nccs2)c(C)n(C)c1C(=O)Nc1ccc(F)c(F)c1` [Compound 78, N-(3,4-difluorophenyl)-1,3,5-trimethyl-4-(2-oxo-2-(thiazol-2-ylamino)acetyl)-1H-pyrrole-2-carboxamide], the CC50 is over 100 µM in series [1], 15 µM in series [2], 84 µM in series [3] and over 100 µM in series [4]. The EC50 with wild type HBV is 0.001 to 0.009 µM. Moreover, the EC90 in the series on wild type HBV was in the range of 0.01 to 0.09 µM.
Take `Cn1cc(C(=O)C(=O)Nc2ccccc2)cc1C(=O)Nc1ccc(F)c(F)c1` [Compound 28, N-(3,4-difluorophenyl)-1-methyl-4-(2-oxo-2-(phenylamino)acetyl)-1H-pyrrole-2-carboxamide]: the CC50 in series [1] was 13.4 µM; in series [2], over 100 µM; in series [3] it was over 100 µM. For the same compound, the EC50 with wild type HBV fell in the range of 0.01 to 0.09 µM. The 90% effect concentration (EC90) in the series on wild type HBV was in the range of 1 to 9 µM.
For `Cn1cc(C(=O)C(=O)N2CC(F)(F)C2)cc1C(=O)Nc1ccc(F)c(F)c1` [Compound 32, 4-(2-(3,3-difluoroazetidin-1-yl)-2-oxoacetyl)-N-(3,4-difluorophenyl)-1-methyl-1H-pyrrole-2-carboxamide], the CC50 in series [1], in series [2], in series [3] and in series [4] was over 100 µM each time. In addition, the EC50 in the series on wild type HBV was 1 to 9 µM. The EC90 with wild type HBV lay within 1 to 9 µM.
As to `Cc1c(C(=O)C(=O)N2CCN(C)CC2)c(C)n(C)c1C(=O)Nc1ccc(F)c(F)c1` [Compound 44, N-(3,4-difluorophenyl)-1,3,5-trimethyl-4-(2-(4-methylpiperazin-1-yl)-2-oxoacetyl)-1H-pyrrole-2-carboxamide], the CC50 in series [1] is over 100 µM; in series [2], 17 µM; in series [3], 90 µM; in series [4], 92 µM. Further, the half-maximal effective concentration (EC50) in the series on wild type HBV lay in the range of 0.1 to 0.9 µM. For the same compound, the EC90 in the series on wild type HBV was in the range of 1 to 9 µM.
As for `C#CCNC(=O)C(=O)c1c(C)c(C(=O)Nc2ccncc2)n(C)c1C` [Compound 63, 1,3,5-trimethyl-4-(2-oxo-2-(prop-2-yn-1-ylamino)acetyl)-N-(pyridin-4-yl)-1H-pyrrole-2-carboxamide], the CC50 in series [1], in series [2], in series [3] and in series [4] was over 100 µM in each case. Also, the EC50 in the series with wild type HBV was 0.1 to 0.9 µM. The EC90 in the series with wild type HBV was in the range of 1 to 9 µM.
For `C=CCNC(=O)C(=O)c1cc(C(=O)Nc2ccc(F)c(F)c2)n(C)c1` [Compound 25, 4-(2-(allylamino)-2-oxoacetyl)-N-(3,4-difluorophenyl)-1-methyl-1H-pyrrole-2-carboxamide], the CC50 in series [1] was 68.1 µM; in series [2] it was over 100 µM; in series [3], over 100 µM; in series [4] it was over 100 µM. In addition, the EC50 with wild type HBV was in the range of 0.01 to 0.09 µM. The EC90 with wild type HBV lay in the range of 1 to 9 µM.
For the compound `C#CCNC(=O)C(=O)c1c(C)c(C(=O)Nc2ccc(F)c(Cl)c2)n(C)c1C` [Compound 66, N-(3-chloro-4-fluorophenyl)-1,3,5-trimethyl-4-(2-oxo-2-(prop-2-yn-1-ylamino)acetyl)-1H-pyrrole-2-carboxamide], the CC50 in series [1] is 70 µM; in series [2], 52 µM; in series [3], 83 µM; in series [4], over 100 µM. Besides, the EC50 with wild type HBV fell in the range of 0.001 to 0.009 µM. Besides, the concentration for an effect of 90% (EC90) in the series with wild type HBV lay within 0.01 to 0.09 µM.
As to `C#CCNC(=O)C(=O)c1c(C)c(C(=O)Nc2ccc(OC(F)(F)F)cc2)n(C)c1C` [Compound 54, 1,3,5-trimethyl-4-(2-oxo-2-(prop-2-yn-1-ylamino)acetyl)-N-(4-(trifluoromethoxy)phenyl)-1H-pyrrole-2-carboxamide], the CC50 in series [1] came out at 6 µM; in series [2], 4 µM; in series [4] it was 3 µM. The EC50 with wild type HBV is 1 to 9 µM.
Take `Cn1cc(C(=O)C(=O)NOC2CCCC2)cc1C(=O)Nc1ccc(F)c(F)c1` [Compound 27, 4-(2-((cyclopentyloxy)amino)-2-oxoacetyl)-N-(3,4-difluorophenyl)-1-methyl-1H-pyrrole-2-carboxamide]: the values for the CC50 in series [1], in series [2] and in series [3] were 80.1 µM, 37.9 µM and over 100 µM, respectively. Moreover, the EC50 with wild type HBV was 0.01 to 0.09 µM. Besides, in the series on wild type HBV, the EC90 fell in the range of 1 to 9 µM.
Consider `C#CCNS(=O)(=O)c1cc(C(=O)Nc2ccc(F)c(F)c2)n(C)c1` [Compound 17, N-(3,4-Difluorophenyl)-1-methyl-4-(N-(prop-2-yn-1-yl)sulfamoyl)-1H-pyrrole-2-carboxamide], for which the values for the CC50 in series [1], in series [2] and in series [4] were 41 µM, 53 µM and over 100 µM, respectively. Besides, the EC50 in the series with wild type HBV was 0.1 to 0.9 µM. For the same compound, the EC90 in the series with wild type HBV was in the range of 1 to 9 µM.

The values above are taken from patent publication US10752584B2 (EMORY UNIVERSITY, priority 2016, dated 2020).
